Test results from patent publication US9868739B2, “Salt(s) of 7-cyclopentyl-2-(5-piperazin-1-yl-pyridin-2-ylamino)-7H-pyrrolo[2,3-d]pyrimidine-6-carboxylic acid dimethylamide and processes of making thereof” (Novartis AG, priority 2010, dated 2018).

How the values were obtained:
physchem = details: water
[1] = Dynamic Vapor Sorption (DVS), moisture cycle 0-80-0% RH; type: physicochemical
[2] = Dynamic Vapor Sorption (DVS), moisture cycles 0-90-0% RH; type: physicochemical

For `CN(C)C(=O)c1cc2cnc(Nc3ccc(N4CCNCC4)cn3)nc2n1C1CCCC1.O=C(O)CCC(=O)O` [hydrate form, succinate salt of 7-Cyclopentyl-2-(5-piperazin-1-yl-pyridin-2-ylamino)-7H-pyrrolo[2,3-d]pyrimidine-6-carboxylic acid dimethylamide], the solubility (physchem; solubility) was < 0.5 mg/mL.
With `CN(C)C(=O)c1cc2cnc(Nc3ccc(N4CCNCC4)cn3)nc2n1C1CCCC1.O=C(O)CCC(=O)O` [Compound of Formula (II), 7-Cyclopentyl-N,N-dimethyl-2-(5-(piperazin-1-yl)pyridin-2-ylamino)-7H-pyrrolo[2,3-d]pyrimidine-6-carboxamide succinate] the “Change In Mass (%) Hysteresis” value ([1]; Cycle 1, target RH 50.0%) was 0.0074%, the “Change In Mass (%) Hysteresis” value ([1]; Cycle 1, target RH 60.0%) was 0.0140% and the “Change In Mass (%) Desorption” value ([1]; Cycle 1, target RH 80.0%) was 0.5200%. For the same compound, the moisture absorbed ([1]; at 80% RH (0 to 80 to 0% RH cycle)) was “up to 0.5%”, the “physical form after exposure” value ([1]; upon exposure to 80% RH (XRPD)) was “stability of the physical form” and the moisture absorbed ([2]; at 90% RH, in each cycle (0 to 90 to 0% RH, two cycles)) was “up to 2%”. The “physical form after exposure” value ([2]; upon exposure to 90% RH (XRPD, DSC, TGA)) was “change in physical form”.
Compound `CN(C)C(=O)c1cc2cnc(Nc3ccc(N4CCNCC4)cn3)nc2n1C1CCCC1.O=C(O)CCC(=O)O` [non-hydrate form, succinate salt of 7-Cyclopentyl-2-(5-piperazin-1-yl-pyridin-2-ylamino)-7H-pyrrolo[2,3-d]pyrimidine-6-caboxylic acid dimethylamide] has a solubility (physchem; solubility in water) of ~30 mg/mL.
